Reference: US20260109721A1, “IONIZABLE CATIONIC LIPIDS INCORPORATING SILICON: SYNTHESIS AND LNP FORMULATION” (priority 2023, published 2026)
Like-named read-outs stand apart in the source and are kept apart here.

Key:
[1] = Encapsulation efficiency of loaded LNPs, RiboGreen RNA assay (Method A); type: physicochemical; conditions: encapsulation efficiency of mRNA-loaded LNP, Method A, RiboGreen
Summary of the method: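 Encapsulation determined by RiboGreen fluorescence (excitation 480, emission 525) comparing Triton X-100–lysed and intact LNP wells, duplicates, after 10 min at 37° C and cooling to room temperature. Sample stocks ~4-7 μg/mL RNA in TE buffer; concentration from RNA standard curve.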

HepG2 cell line = test: In vitro toxicity study on HepG2 cell line (resazurin, viability and IC50); type: cell-based, human; conditions: for Viability (%) at different lipid concentrations, mean: HepG2 cells, 48 h post-treatment, relative to ethanol vehicle controls; for IC50: read-out: IC50 value, μM (on HepG2 cell)
Summary of the method: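 Resazurin read-out (ex 530/em 580 nm, 5 h at 37 °C) measured lipid toxicity 48 h after dosing HepG2 cells (1000/well) at 6.25–800 μM. Viability was normalised to ethanol vehicle, and IC50 was derived from concentration-response curves.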

SMILES	EE (%) [1] [%]	Viability (%) at different lipid concentrations, mean (HepG2 cell line; 6.25 μM lipid, resazurin) [%]	Viability (%) at different lipid concentrations, mean (HepG2 cell line; 12.5 μM lipid, resazurin) [%]	Viability (%) at different lipid concentrations, mean (HepG2 cell line; 25 μM lipid, resazurin) [%]	Viability (%) at different lipid concentrations, mean (HepG2 cell line; 50 μM lipid, resazurin) [%]	Viability (%) at different lipid concentrations, mean (HepG2 cell line; 100 μM lipid, resazurin) [%]	Viability (%) at different lipid concentrations, mean (HepG2 cell line; 200 μM lipid, resazurin) [%]	Viability (%) at different lipid concentrations, mean (HepG2 cell line; 400 μM lipid, resazurin) [%]	Viability (%) at different lipid concentrations, mean (HepG2 cell line; 800 μM lipid, resazurin) [%]	IC50 (HepG2 cell line; Homo sapiens, HepG2, 48 h) [µM]	IC50 (HepG2 cell line; lipid toxicity, HepG2, 48 h post-treatment, resazurin, 6.25-800 μM) [µM]
C#CCN(C)CCCCCCO[Si](C)(C)OC(CC(C)(C)C(=O)OCCCCCCCC/C=C\CCCCCCCC)OCCCCCCCC/C=C\CCCCCCCC (centres unmarked) [Example 97, (Z)-octadec-9-en-1-yl 4,12,12,16,16-pentamethyl-14-(((Z)-octadec-9-en-1-yl)oxy)-11,13-dioxa-4-aza-12-silaheptadec-1-yn-17-oate]	86	100.7	96.1	95.5	97.5	98.9	99.7	91.8	0.7	501	
CCCCCCCCCCCOC(=O)CCCCCN(CCO)CCCCCCCC(=O)OC(CCCCCCCC)CCCCCCCC [SM-102, reference compound]	88	86.5	101.5	101.7	101.4	21.2	0.4	0.2	0.0		85
